Entries after “also recorded” stand apart in the source; their conditions may differ.
Tested on: astrocytes
Experiment: Viability assay, astrocytes
Assay type: cell-based, mouse
Details: 1 h pre-treatment at indicated concentrations, LPS/IFNγ, 6 h after activation
Method: FIGS. 14a-g. B4GALT6 directly controls astrocyte activation. (a) Cultured astrocytes were pre-treated for 1 h with PDMP (25 μM), LacCer (10 μM), both (LacCer+PDMP), or vehicle control (vehicle), followed by activation with LPS/IFNγ for 6 h, or left un-treated (control, Con). mRNA expression was analyzed 6 h following activation. qPCR analysis of the expression of cc/5, csf2, nos2, il6, H2-Aa, and tlr2 presented relative to gapdh. Statistical analysis by one-way ANOVA, followed by Tukey post-hoc analysis. (b, c) Cultured astrocytes were pre-treated for 1 h with LacCer (b) or PDMP (c), at indicated concentrations, followed by activation with LPS/IFNγ, or left un-treated (control, Con). Cell viability was determined 6 h after activation. […] Astrocytes were then pre-treated for 1 h with PDMP, or vehicle control (vehicle), followed by activation with LPS/IFNγ for 6 h, or left un-treated (control, Con). mRNA expression for H2-Aa, Ccl5 and Cxcl10 was determined; expression is presented as fold induction relative to housekeeping gene (Gapdh). […] (f) NF-κB (P65), GAPDH, and Lamin B expression, in cytoplasmic and nuclear fractions analyzed by western blot. The degree of NF-κB translocation to the nucleus was assessed by the ratio between the expression of P65 in nuclear and cytoplasmic fractions following densitometric quantification on four independent experiments (Right panel). […]

With `CCCCCCCCCC(=O)N[C@H](CN1CCOCC1)[C@H](O)c1ccccc1` [PDMP, D-threo-1-phenyl-2-decanoylamino-3-morpholino-1-propanol] the astrocyte viability was “did not affect astrocyte viability; also recorded: no significant cells death”.

With lactosylceramide [LacCer] the astrocyte viability was “did not affect astrocyte viability; also recorded: no significant cells death”.
